What was measured:
[1] = system: human NCI-H460 cancer cells xenograft; test: Nude mouse xenograft, post-treatment-only, comparison with docetaxel; details: for Mean tumor volume at week 4: 0.012 mmol/kg i.v. (CB1a 50 mg/kg, docetaxel 10 mg/kg), saline 5,400 mm^3; for Mean tumor volume at week 4 / Mean body weight at week 4 / Mean tumor weight as % of that in saline treated mice: 5 injections per week for 4 weeks; for Body weight course: compared with saline treated mice; for Mean body weight at week 5: data not shown; for Mean tumor weight as % of that in saline treated mice: week 4, sacrificed
[2] = system: normal lung cell versus cancerous lung cell; details: general statement, no reference given; cited from earlier work
Description: IC50 is the chemical concentration that produces 50% cell survival. The selectivity index of a lung cancer drug is a measure of how specific its killing action is to cancer cells. It is the ratio of its IC50 for a normal lung cell to its IC50 for a cancerous lung cell.

[3] = 100 mg/m^2 in a three-week cycle; cited from earlier work
Experimental: Drugs presently in use to combat lung cancers have severe side effects because their toxicity is not sufficiently selective to cancer cells. For example, docetaxel administered at a dose of 100 mg/m^2 in a three-week cycle causes haematological toxicity (86% patients having grade 3 or 4 neutropenia).

[4] = Pharmacokinetics of CB1a in rat blood by competitive ELISA; type: in vivo; details: Sprague-Dawley rats, 50 mg/kg i.v., competitive ELISA with 5C5H5 antibody
Description: Using this standard curve, an unknown concentration of CB1a in a test sample can then be found by finding its OD450nm (A/A0) value in an ELISA experiment. […] For our definitive standard curve, we used the one with a dilution rate of 1∶2000 and utilized this dilution rate when assaying test blood samples. We used a primary antibody dilution rate of 1∶5000.
Six […] male Sprague-Dawley rats (230–260 g; sourced from BioLASCO, Yilan, Taiwan) were housed (3 per cage) in a specific pathogen free animal room. The rats were intravenously injected with CB1a peptide (50 mg/kg) and blood samples were then collected from the tail vein of the rats at the following time points: 5, 20, 25, 38.5, 50, 60 and 240 minutes after the CB1a injection (6 samples taken at each of these time points). The blood samples were transferred to heparinized microcentrifuge tubes and centrifuged at 4,000 g for 5 minutes; then frozen for storage at −80°C.
The blood samples were analyzed via a competitive ELISA technique, rather than the more direct ELISA technique described earlier. Blood samples were diluted 100 fold and then mixed with a known concentration of CB1a antibody (2mg/ml in PBST buffer, including 1% BSA). […] The CB1a concentration recorded on the plate is added to the known CB1a concentration that is washed off, bound to the CB1a antibodies, to get the total CB1a concentration. […]

MRC-5 normal cells = test: Cell plate growth study, photographed; type: cell-based, human; details: 50 µM CB1a added after 4 days, photographed after 24 hours, 2×10^3 cells at start
Experimental: (§1) NCI-H460 cancer cells were grown on two cell plates (2×10^3 cells at start in each) – after 4 days, CB1a (50 µM) was added to one and not the other. […] This experiment was repeated but with normal cells. MRC-5 normal cells were grown on two cell plates (2×10^3 cells at start in each) – after 4 days, CB1a (50 µM) was added to one and not the other.
(§2) Photos A and B show without and with CB1a (50 µM), on NCI-H460 cancer cells, respectively. Photos C and D show without and with CB1a (50 µM), on MRC-5 normal cells, respectively. Initial cell concentrations on plates were 2×10^3 cells for all; photos were taken after 5 days incubation; where CB1a was applied it was done so at the end of day 4. Comparing A and B: one can note without CB1a there is significant cellular growth, as to be expected from a cancer cell line; with CB1a there is not, presumably because of a CB1a kill action against cancer cells.

NCI-H460 cancer cells [5] = test: Cell plate growth study, photographed; type: cell-based, human; details: 50 µM CB1a added after 4 days, photographed after 24 hours, 2×10^3 cells at start
Experimental: as §1, §2

NCI-H460 cancer cells [6] = test: Tumor-like spheroid (MCTS) formation, modified hanging drop method; type: cell-based, human; details: NCI-H460, 5×10^2 cells
Experimental: We used non-adhesive, bacterial culture-grade polystyrene Petri dishes. Approximately 5×10^2 NCI-H460 cancer cells (3×10^4 cells/ml) were deposited as a drop on the inner face of lids to 90 mm Petri dishes. These lids were then placed on their dishes, which were filled with 10 ml phosphate-buffered saline (PBS). A monolayer of NCI-H460 lung cancer cells was then de-attached by 0.25% Trypsin-EDTA. These dishes were then incubated at 37 C in a 5% CO2 incubator. This modified “hanging drop” method causes the cancer cells to grow in a tumor-like aggregation; which is called a MCTS. After 3 days incubation, CB1a was applied in different concentrations (5, 15, 30, 45 and 60 µM) to different plates and a photo was then taken of each plate after 36 hours. This methodology investigated the post-treatment of CB1a, after tumor formation. The pre-treatment effect of CB1a, before tumor formation, was also studied. CB1a was applied in different concentrations (5, 15, 30, 45 and 60 µM) to different plates and left for 30 minutes before the 0.25% Trypsin-EDTA de-attachment step. After this step, the plates were incubated for 3 days and 36 hours before being photographed.

[7] = system: human NCI-H460 cancer cells xenograft; test: Nude mouse xenograft, pre-and-post-treatment of CB1a; type: in vivo; details: 50 mg/kg s.c.
Experimental: Afterwards, the animal test experiments were performed.
Six mice were pre-treated with CB1a (50 mg/kg) 3 times in one week prior to them being subcutaneously xenografted with human tumorigenic NCI-H460 lung cancer cells (0.2 ml; 1×10^6 cells/ml). A control was studied in which saline was used instead of CB1a (6 mice in this control group). The dose of CB1a/saline was continued after the xenograft: 5 times per week for 5 weeks. The CB1a/saline injection point was in the dorsolateral neck area and the xenograft cancer cells were transplanted into the abdominal flank area of the mouse (Figure 5A). The distance between these two points is far (∼4 cm) as compared to the length of the mouse (∼6 cm). This distance tested whether CB1a could effectively travel in the blood stream without being destroyed. […] 36 days after the human lung cancer cells were xenografted on to the mouse – the mean volume of the tumor in the CB1a treated mice was just 19.3% of the tumor in the saline treated mice (Figure 5C); the mean weight of the tumor in CB1a treated mice was just 9% of the tumor in saline treated mice (Figure 5D). In other words, the tumor was ∼80% smaller and ∼90% lighter in CB1a treated mice.

HFL1 cells = test: In vitro toxicity to other normal cells; type: cell-based; details: data not shown
3T3/3T6 tissue cells = test: In vitro toxicity to other normal cells; type: cell-based; details: data not shown
[8] = tumor-bearing nude mice, 0.012 mmol/kg i.v., n = 6
[9] = tumor-bearing nude mice, 0.012 mmol/kg i.v., 5 injections per week, n = 6
[10] = tumor-bearing nude mice, 0.012 mmol/kg i.v.

## CC(=O)O[C@@]12CO[C@@H]1C[C@H](O)[C@@]1(C)C(=O)[C@H](O)C3=C(C)[C@@H](OC(=O)[C@H](O)[C@@H](NC(=O)OC(C)(C)C)c4ccccc4)C[C@@](O)([C@@H](OC(=O)c4ccccc4)[C@H]21)C3(C)C [docetaxel, reference compound]
[1]; n = 6
  Mean tumor volume at week 4: 3,200 mm^3
[1]; [8]
  Mean body weight at week 4: 25 g
[1]; [9]
  Mean body weight at week 2 (maximum): 27 g
[1]; [10]
  Body weight course: weight loss
  Mean body weight at week 5: 21 g
[1]; 0.012 mmol/kg i.v., n = 6
  Mean tumor weight as % of that in saline treated mice: 73%
[2]
  Selectivity index (SI) of drugs presently on the market: less than one
[3]
  Patients having grade 3 or 4 neutropenia (haematological toxicity): 86%

## H-KWKVFKKIEKKWKVFKKIEKAGPKWKVFKKIEK-OH [CB1a]
[4]
  Time for which a CB1a concentration that can kill cancer cells (≥25 µM or ≥105 µg/ml) endures in rat blood: around 25 minutes
[4]; male, rat, iv, tail vein blood 5-240 minutes, n = 6
  half-life: 16.4 min
[1]; n = 6
  Mean tumor volume at week 4: 3,100 mm^3
[1]; [8]
  Mean body weight at week 4: 30.5 g
[1]; [9]
  Mean body weight at the start: 25.5 g
[1]; [10]
  Body weight course: gained weight at the same trajectory as saline treated mice
  Mean body weight at week 5: 32 g
[1]; 0.012 mmol/kg i.v., n = 6
  Mean tumor weight as % of that in saline treated mice: 59%
MRC-5 normal cells
  Cell number on plate versus plate without CB1a: does not kill these normal cells
NCI-H460 cancer cells [5]
  Cell number on plate versus plate without CB1a: significantly less cells
NCI-H460 cancer cells [6]; CB1a 5, 15, 30, 45, 60 µM applied after 3 days incubation, photo after 36 hours
  Spheroid formation, post-treatment with CB1a: tumor spheroids can still be observed
NCI-H460 cancer cells [6]; CB1a 5-60 µM applied 30 minutes before de-attachment, higher CB1a concentrations
  Spheroid formation, pre-treatment with CB1a: no spheroids form
[7]; 36 days after xenograft, pre-and-post-treatment, n = 6
  Mean tumor volume as % of that in saline treated mice: 19.3%
[7]; day 36, sacrificed, pre-and-post-treatment, n = 6
  Mean tumor weight as % of that in saline treated mice: 9%
[7]; day 36, pre-and-post-treatment
  Tumor lighter than in saline treated mice: ~90%
  Tumor smaller than in saline treated mice: ~80%
[7]; nude mice, 3 times in week before xenograft then 5 times per week for 5 weeks, n = 6
  Deaths during the experiment: None of the mice died
[7]; nude mice, pre-and-post-treatment, n = 6
  Mean body weight compared with saline treated mice: comparable to that of saline treated mice
HFL1 cells
  Killing of normal cells at concentrations that kill lung cancer cells: do not kill
3T3/3T6 tissue cells
  Killing of normal cells at concentrations that kill lung cancer cells: do not kill

## COc1cccc2c1C(=O)c1c(O)c3c(c(O)c1C2=O)C[C@@](O)(C(=O)CO)C[C@@H]3O[C@H]1C[C@H](N)[C@H](O)[C@H](C)O1 [doxorubicin]
[2]
  Selectivity index (SI) of drugs presently on the market: less than one
